Where two headings read alike, the source gives them in different places. Where a SMILES comes first, the peptide text is derived from it. Bridges are numbered along the chain shown (N, C = ends). [ ]: non-standard residue; d: D form. 1Nal = N[C@@H](Cc1cccc2ccccc12)C(=O)O; 2Nal = N[C@@H](Cc1ccc2ccccc2c1)C(=O)O; d2Nal = N[C@H](Cc1ccc2ccccc2c1)C(=O)O; Bta = N[C@@H](Cc1csc2ccccc12)C(=O)O; Aib = CC(C)(N)C(=O)O
How the values were obtained:
[1] = target: T1, hMC5-R (Homo sapiens, UniProt P33032); assay: cyclic AMP bioassay, hMC5-R; format: cell-based
T1 construct: expressed in transfected cells; host or cells: CHO-K1
T1 sequence (P33032 whole entry): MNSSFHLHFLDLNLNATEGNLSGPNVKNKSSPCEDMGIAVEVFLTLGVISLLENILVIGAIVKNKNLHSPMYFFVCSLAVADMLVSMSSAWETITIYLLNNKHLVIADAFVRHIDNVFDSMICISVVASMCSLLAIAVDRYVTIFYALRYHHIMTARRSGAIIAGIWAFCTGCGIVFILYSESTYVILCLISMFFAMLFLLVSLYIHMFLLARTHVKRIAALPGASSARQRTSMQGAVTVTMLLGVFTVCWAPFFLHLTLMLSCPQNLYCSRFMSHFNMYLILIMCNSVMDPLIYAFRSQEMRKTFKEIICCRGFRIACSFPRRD
Description: (§3) Intracellular cyclic AMP (cAMP) levels were determined by an electrochemiluminescence (ECL) assay (Meso Scale Discovery®, Gaithersburg, Md.; referred to hereinafter as MSD). […] Transgenic CHO-K1 cells stably expressing hMC receptor subtypes 1, 3, 4 or 5 were dispensed at a density of approximately 7,000 cells/well in 384-well Multi-Arrays plates (MSD) containing integrated carbon electrodes and coated with anti-CAMP antibody. Increasing concentrations of the test compounds were added and the cells were incubated for approximately 40 minutes at approximately 37° C. […] At the end of the second incubation period read buffer (Tris-buffered solution containing an ECL co-reactant and Triton X-100 at ph 7.8) was added and the cAMP levels in the cell lysates were immediately determined by ECL detection with a Sector Imager 6000 Reader® (MSD). Data were analyzed using a computer-assisted non-linear regression analysis (XL fit; IDBS) and reported as either an EC50 value or a Kb value.
(§4) The Kb value reflects the potency of an antagonist and is determined by Schild analysis. In brief, concentration-response curves of an agonist are carried out in the presence of increasing concentrations of an antagonist. […] It is calculated by extrapolating the line on a Schild plot to zero on the y-axis.

[2] = target: T2, hMC4-R (Homo sapiens, UniProt P32245); assay: cyclic AMP bioassay, hMC4-R; format: cell-based
T2 construct: expressed in transfected cells; host or cells: CHO-K1
T2 sequence (P32245 whole entry): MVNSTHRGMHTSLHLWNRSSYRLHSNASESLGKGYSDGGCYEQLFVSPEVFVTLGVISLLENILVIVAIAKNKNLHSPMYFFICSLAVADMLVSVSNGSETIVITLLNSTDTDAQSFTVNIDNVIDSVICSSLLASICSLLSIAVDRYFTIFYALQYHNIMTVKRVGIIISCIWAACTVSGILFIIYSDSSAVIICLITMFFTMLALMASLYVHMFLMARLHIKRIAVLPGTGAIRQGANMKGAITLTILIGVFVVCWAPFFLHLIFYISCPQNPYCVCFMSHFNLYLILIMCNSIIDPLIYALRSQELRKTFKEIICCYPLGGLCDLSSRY

[3] = target: T3, hMC3-R (Homo sapiens, UniProt P41968); assay: cyclic AMP bioassay, hMC3-R; format: cell-based
T3 construct: expressed in transfected cells; host or cells: CHO-K1
T3 sequence (P41968 whole entry): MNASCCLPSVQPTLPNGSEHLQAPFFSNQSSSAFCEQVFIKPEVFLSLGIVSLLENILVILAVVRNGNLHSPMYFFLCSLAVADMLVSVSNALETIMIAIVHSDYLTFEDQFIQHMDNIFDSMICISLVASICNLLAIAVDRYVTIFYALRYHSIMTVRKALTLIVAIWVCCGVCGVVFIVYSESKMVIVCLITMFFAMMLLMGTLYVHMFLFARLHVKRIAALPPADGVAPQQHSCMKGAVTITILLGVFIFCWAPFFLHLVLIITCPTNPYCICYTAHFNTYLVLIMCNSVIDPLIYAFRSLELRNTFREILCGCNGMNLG

[4] = target: T4, hMC1-R (Homo sapiens, UniProt Q01726); assay: cyclic AMP bioassay, hMC1-R; format: cell-based
T4 construct: expressed in transfected cells; host or cells: CHO-K1
T4 sequence (Q01726 whole entry): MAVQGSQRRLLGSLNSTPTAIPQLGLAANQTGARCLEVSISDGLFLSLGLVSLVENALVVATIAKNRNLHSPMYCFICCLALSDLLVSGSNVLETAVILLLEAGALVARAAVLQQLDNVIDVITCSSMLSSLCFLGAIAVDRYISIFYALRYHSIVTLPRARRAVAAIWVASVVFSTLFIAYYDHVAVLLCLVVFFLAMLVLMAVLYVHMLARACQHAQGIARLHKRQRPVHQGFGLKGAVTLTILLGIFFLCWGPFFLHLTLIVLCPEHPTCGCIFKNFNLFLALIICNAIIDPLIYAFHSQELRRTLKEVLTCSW
Description: as §3, §4

[5] = target: T2, hMC4-R; assay: Radioligand binding assay, hMC4-R
Description: (§1) Cellular membranes used for the in vitro receptor binding assays were obtained from transgenic CHO-K1 cells stably expressing hMC-R receptor subtypes 1, 3, 4 or 5. […] The pellets were resuspended in the same buffer and centrifuged at 50,000 g for 10 minutes at approximately 4° C. The washed pellets containing the cellular membranes were stored at approximately −80° C.
(§2) Filters were washed three times with 50 mM Tris-HCl at p-H 7.4 at a temperature of approximately 0-4° C. and then assayed for radioactivity using a Packard Topcount® scintillation counter. Binding data were analyzed by computer-assisted non-linear regression analysis (XL fit; IDBS).

[6] = target: T3, hMC3-R; assay: Radioligand binding assay, hMC3-R
Description: as §1, §2

[7] = Table 3A, cAMP in CHO-K1 cells, agonist, read-out: EC50 hMC5-R
[8] = Table 3A, cAMP in CHO-K1 cells, antagonist potency by Schild analysis, read-out: Kb hMC4-R
[9] = Table 3A, cAMP in CHO-K1 cells, antagonist potency by Schild analysis, read-out: Kb hMC3-R
[10] = Table 3A, cAMP in CHO-K1 cells, agonist, read-out: EC50 hMC1-R

In the case of CCCC[C@H](NC(C)=O)C(=O)N[C@H]1CC(=O)NCCCC[C@@H](C(=O)NCCOCCOCC(=O)NCCOCCOCC(=O)N[C@@H](Cc2ccc(O)cc2)C(=O)NCC(=O)N[C@@H](CCCNC(=N)N)C(=O)N[C@@H](CCCCN)C(=O)N[C@@H](CCCCN)C(=O)N[C@@H](CCCNC(=N)N)C(=O)N[C@@H](CCCNC(=N)N)C(=O)N[C@@H](CCC(N)=O)C(=O)N[C@@H](CCCNC(=N)N)C(=O)N[C@@H](CCCNC(=N)N)C(=O)N[C@@H](CCCNC(=N)N)C(N)=O)NC(=O)[C@H](Cc2c[nH]c3ccccc23)NC(=O)[C@H](CCCNC(=N)N)NC(=O)[C@@H](Cc2ccc3ccccc3c2)NC(=O)[C@H](Cc2c[nH]cn2)NC1=O, the EC50 [1, 7] is reported as 2.86 nM, the Kb [2, 8] is reported as 4.61 nM and the Kb [3, 9] is reported as 8.97 nM. It also gave an EC50 [4, 10] of 3.23 nM.
For CCCC[C@H](NC(C)=O)C(=O)N[C@H]1CC(=O)NCCCC[C@@H](C(=O)N2CCC[C@H]2C(=O)N2CCC[C@H]2C(=O)N[C@@H](CCCCN)C(=O)N[C@@H](CC(=O)O)C(=O)NCCOCCOCC(=O)N[C@@H](Cc2ccc(O)cc2)C(=O)NCC(=O)N[C@@H](CCCNC(=N)N)C(=O)N[C@@H](CCCCN)C(=O)N[C@@H](CCCCN)C(=O)N[C@@H](CCCNC(=N)N)C(=O)N[C@@H](CCCNC(=N)N)C(=O)N[C@@H](CCC(N)=O)C(=O)N[C@@H](CCCNC(=N)N)C(=O)N[C@@H](CCCNC(=N)N)C(=O)N[C@@H](CCCNC(=N)N)C(N)=O)NC(=O)[C@H](Cc2c[nH]c3ccccc23)NC(=O)[C@H](CCCNC(=N)N)NC(=O)[C@@H](Cc2ccc3ccccc3c2)NC(=O)[C@H](Cc2c[nH]cn2)NC1=O, the EC50 [1, 7] was 1.61 nM, the Kb [2, 8] was 3.73 nM and the Kb [3, 9] was 19.4 nM. The EC50 [4, 10] was 3.65 nM.
CC(=O)N[C@H]1CSSC[C@@H](C(=O)N2CCC[C@H]2C(=O)N2CCC[C@H]2C(=O)N[C@@H](CCCNC(=N)N)C(=O)N[C@@H](CC(=O)O)C(=O)NCCC(=O)N[C@@H](CCCNC(=N)N)C(=O)N[C@@H](CCCNC(=N)N)C(=O)N[C@@H](CCCNC(=N)N)C(=O)N[C@@H](CCCNC(=N)N)C(=O)N[C@@H](CCCNC(=N)N)C(=O)N[C@@H](CCC(N)=O)C(=O)N[C@@H](CCCNC(=N)N)C(=O)N[C@@H](CCCNC(=N)N)C(=O)N[C@@H](CCCNC(=N)N)C(N)=O)NC(=O)[C@H](C)NC(=O)[C@H](Cc2cccc3ccccc23)NC(=O)[C@H](CCCNC(=N)N)NC(=O)[C@@H](Cc2ccc3ccccc3c2)NC(=O)[C@H](Cc2c[nH]cn2)NC(=O)[C@H](CCC(=O)O)NC1=O showed an EC50 [1] of 819 nM, a Kb [2] of 8.93 nM and a Ki [5] of 0.293 nM. For the same compound, the Kb [3] was 116 nM and the EC50 [4] was 144 nM.
In the case of CC(=O)N[C@H]1CSSC[C@@H](C(=O)N2CCC[C@H]2C(=O)N2CCC[C@H]2C(=O)N[C@@H](CCCCN)C(=O)N[C@@H](CC(=O)O)C(=O)NCCC(=O)N[C@@H](Cc2ccc(O)cc2)C(=O)NCC(=O)N[C@@H](CCCNC(=N)N)C(=O)N[C@@H](CCCCN)C(=O)N[C@@H](CCCNC(=N)N)C(=O)N[C@@H](CCCNC(=N)N)C(=O)N[C@@H](CCCNC(=N)N)C(=O)N[C@@H](CCC(N)=O)C(=O)N[C@@H](CCCNC(=N)N)C(=O)N[C@@H](CCCNC(=N)N)C(=O)N[C@@H](CCCNC(=N)N)C(N)=O)NC(=O)[C@H](C)NC(=O)[C@H](Cc2cccc3ccccc23)NC(=O)[C@H](CCCNC(=N)N)NC(=O)[C@@H](Cc2ccc3ccccc3c2)NC(=O)[C@H](Cc2c[nH]cn2)NC(=O)[C@H](CCC(=O)O)NC1=O, the EC50 [1] is reported as 261 nM, the Kb [2] is reported as 14.6 nM and the Ki [6] is reported as 1.61 nM. For the same compound, the Kb [3] was 26.3 nM and the EC50 [4] was 102 nM.
With CC(=O)N[C@H]1CSSC[C@@H](C(=O)N2CCC[C@H]2C(=O)N2CCC[C@H]2C(=O)N[C@@H](CCCCN)C(=O)N[C@@H](CC(=O)O)C(=O)NCCC(=O)N[C@@H](Cc2ccc(O)cc2)C(=O)NCC(=O)N[C@@H](CCCNC(=N)N)C(=O)N[C@@H](CCCCN)C(=O)N[C@@H](CCCCN)C(=O)N[C@@H](CCCNC(=N)N)C(=O)N[C@@H](CCCNC(=N)N)C(=O)N[C@@H](CCC(N)=O)C(=O)N[C@@H](CCCNC(=N)N)C(=O)N[C@@H](CCCNC(=N)N)C(=O)N[C@@H](CCCNC(=N)N)C(N)=O)NC(=O)[C@H](C)NC(=O)[C@H](Cc2c[nH]c3ccccc23)NC(=O)[C@H](CCCNC(=N)N)NC(=O)[C@@H](Cc2ccc3ccccc3c2)NC(=O)[C@H](Cc2c[nH]cn2)NC(=O)[C@H](CCC(=O)O)NC1=O the EC50 [1, 7] was 38.2 nM, the Kb [2, 8] was 1.66 nM and the Kb [3, 9] was 70 nM. For the same compound, the EC50 [4, 10] was 6.3 nM.
With CC(=O)N[C@H]1CSSC[C@@H](C(=O)N2CCC[C@H]2C(=O)N2CCC[C@H]2C(=O)N[C@@H](CCCCN)C(=O)N[C@@H](CC(=O)O)C(=O)NCCOCCOCC(=O)N[C@@H](Cc2ccc(O)cc2)C(=O)NCC(=O)N[C@@H](CCCNC(=N)N)C(=O)N[C@@H](CCCCN)C(=O)N[C@@H](CCCCN)C(=O)N[C@@H](CCCNC(=N)N)C(=O)N[C@@H](CCCNC(=N)N)C(=O)N[C@@H](CCC(N)=O)C(=O)N[C@@H](CCCNC(=N)N)C(=O)N[C@@H](CCCNC(=N)N)C(=O)N[C@@H](CCCNC(=N)N)C(N)=O)NC(=O)[C@H](C)NC(=O)[C@H](Cc2c[nH]c3ccccc23)NC(=O)[C@H](CCCNC(=N)N)NC(=O)[C@@H](Cc2ccc3ccccc3c2)NC(=O)[C@H](Cc2c[nH]cn2)NC(=O)[C@H](CCC(=O)O)NC1=O the EC50 [1, 7] was 70 nM, the Kb [2, 8] was 1.81 nM and the Kb [3, 9] was 30.3 nM. It also gave an EC50 [4, 10] of 12.1 nM.
Work on CCCC[C@H](N)C(=O)N[C@H]1CC(=O)NCCCC[C@@H](C(=O)NCCOCCOCC(=O)NCCOCCOCC(=O)N[C@@H](Cc2ccc(O)cc2)C(=O)NCC(=O)N[C@@H](CCCNC(=N)N)C(=O)N[C@@H](CCCCN)C(=O)N[C@@H](CCCCN)C(=O)N[C@@H](CCCNC(=N)N)C(=O)N[C@@H](CCCNC(=N)N)C(=O)N[C@@H](CCC(N)=O)C(=O)N[C@@H](CCCNC(=N)N)C(=O)N[C@@H](CCCNC(=N)N)C(=O)N[C@@H](CCCNC(=N)N)C(N)=O)NC(=O)[C@H](Cc2c[nH]c3ccccc23)NC(=O)[C@H](CCCNC(=N)N)NC(=O)[C@@H](Cc2ccc3ccccc3c2)NC(=O)[C@H](Cc2c[nH]cn2)NC1=O yielded a Kb [2, 8] of 3.11 nM, a Ki ([5]; read-out: Ki hMC4-R) of 6 nM and a Kb [3, 9] of 261 nM.
CC(=O)N[C@H]1CSSC[C@@H](C(=O)N2CCC[C@H]2C(=O)N2CCC[C@H]2C(=O)N[C@@H](CCCCN)C(=O)N[C@@H](CC(=O)O)C(N)=O)NC(=O)[C@H](C)NC(=O)[C@H](Cc2cccc3ccccc23)NC(=O)[C@H](CCCNC(=N)N)NC(=O)[C@@H](Cc2ccc3ccccc3c2)NC(=O)[C@H](Cc2c[nH]cn2)NC(=O)[C@H](CCC(=O)O)NC1=O [Ac-c(Cys-Glu-His-D-2-Nal-Arg-1-Nal-Ala-Cys)-Pro-Pro-Lys-Asp-NH2] (Ac-CEH[d2Nal]R[1Nal]ACPPKD-NH2; disulfide 1-8) was tested, and the EC50 [1] was 104 nM, the Kb [2] was 5.92 nM and the Kb [3] was 105 nM. It also gave an EC50 [4] of 269 nM.
With CC(=O)N[C@H]1CSSC[C@@H](C(=O)N2CCC[C@H]2C(=O)N2CCC[C@H]2C(=O)N[C@@H](CCCCN)C(=O)N[C@@H](CC(=O)O)C(N)=O)NC(=O)C(C)(C)NC(=O)[C@H](Cc2ccc3ccccc3c2)NC(=O)[C@H](CCCNC(=N)N)NC(=O)[C@@H](Cc2ccc3ccccc3c2)NC(=O)[C@H](Cc2c[nH]cn2)NC(=O)[C@H](CCC(=O)O)NC1=O [Ac-c(Cys-Glu-His-D-2-Nal-Arg-2-Nal-Aib-Cys)-Pro-Pro-Lys-Asp-NH2] (Ac-CEH[d2Nal]R[2Nal][Aib]CPPKD-NH2; disulfide 1-8) the EC50 [1] was 869 nM, the Kb [2] was 4.52 nM and the Ki [5] was 5.87 nM. For the same compound, the Kb [3] was 221 nM and the EC50 [4] was 770 nM.
In the case of CC(=O)N[C@H]1CSSC[C@@H](C(=O)N2CCC[C@H]2C(=O)N2CCC[C@H]2C(=O)N[C@@H](CCCCN)C(=O)N[C@@H](CC(=O)O)C(N)=O)NC(=O)[C@H](C)NC(=O)[C@H](Cc2ccc3ccccc3c2)NC(=O)[C@H](CCCNC(=N)N)NC(=O)[C@@H](Cc2ccc3ccccc3c2)NC(=O)[C@H](Cc2c[nH]cn2)NC(=O)[C@H](CCC(=O)O)NC1=O [Ac-c(Cys-Glu-His-D-2-Nal-Arg-2-Nal-Ala-Cys)-Pro-Pro-Lys-Asp-NH2] (Ac-CEH[d2Nal]R[2Nal]ACPPKD-NH2; disulfide 1-8), the EC50 [1] is reported as 66.9 nM, the Kb [2] is reported as 12.2 nM and the Kb [3] is reported as 140 nM. The EC50 [4] was 33.6 nM.
CC(=O)N[C@H]1CSSC[C@@H](C(=O)N2CCC[C@H]2C(=O)N2CCC[C@H]2C(=O)N[C@@H](CCCCN)C(=O)N[C@@H](CC(=O)O)C(N)=O)NC(=O)[C@H](C)NC(=O)[C@H](Cc2csc3ccccc23)NC(=O)[C@H](CCCNC(=N)N)NC(=O)[C@@H](Cc2ccc3ccccc3c2)NC(=O)[C@H](Cc2c[nH]cn2)NC(=O)[C@H](CCC(=O)O)NC1=O [Ac-c(Cys-Glu-His-D-2-Nal-Arg-Bal-Ala-Cys)-Pro-Pro-Lys-Asp-NH2] (Ac-CEH[d2Nal]R[Bta]ACPPKD-NH2; disulfide 1-8) was tested, and the EC50 [1] was 177 nM, the Kb [2] was 4.56 nM and the Kb [3] was 70.7 nM. For the same compound, the EC50 [4] was 690 nM.
CC(=O)N[C@H]1CSSC[C@@H](C(=O)N2CCC[C@H]2C(=O)N2CCC[C@H]2C(=O)N[C@@H](CCCCN)C(=O)N[C@@H](CC(=O)O)C(N)=O)NC(=O)[C@H](C)NC(=O)[C@H](Cc2c[nH]c3ccccc23)NC(=O)[C@H](CCCNC(=N)N)NC(=O)[C@@H](Cc2ccc3ccccc3c2)NC(=O)[C@H](Cc2c[nH]cn2)NC(=O)[C@H](CCC(=O)O)NC1=O [Ac-c(Cys-Glu-His-D-2-Nal-Arg-Trp-Ala-Cys)-Pro-Pro-Lys-Asp-NH2] (Ac-CEH[d2Nal]RWACPPKD-NH2; disulfide 1-8) gave an EC50 [1, 7] of 6.84 nM, a Kb [2, 8] of 0.687 nM and a Kb [3, 9] of 33.4 nM. For the same compound, the EC50 [4, 10] was 66.1 nM.

— US20090232838A1, “Ligands of melanocortin receptors” (priority 2005, published 2009)
